Assay results: patent US10081737B2, “Method for producing curing agent of coating and its application on coating” (SHANGHAI YAO HE BIOCHEMICAL TECHNOLOGY CO., LTD., priority 2016, dated 2018)

Tests used:
Assay type in all cases: physicochemical
[1] = Heat resistance of coating films, 220° C., 15 min; details: color difference compared with the color at 200° C., 10 min; less color differences indicate better properties
Protocol: (§1) To verify properties of the product of the invention, APLUS101, APLUS102, HAA and TGIC are individually mixed with the polyester powder and additives. These curing agents are added in amounts of 2-8 wt % of the polyester powder coatings.
(§2) The coatings are tested in the form of films and the tests are carried out in the same conditions.

[2] = MEK resistance tests, 24 h, gloss loss of coating films; details: coating film containing the named curing agent
Protocol: as §1, §2

[3] = QUV-A tests, 500 h, gloss retention of coating films; details: coating film containing the named curing agent
Protocol: as §1, §2

[4] = Flow and leveling of the powder coatings; details: polyester powder coating containing the named curing agent
Protocol: as §1, §2

[5] = Neutral salt-spray tests, 300 h, on coating films; details: corrosion of the coating film; cell text wraps over r6-r8 (Slight corrosion / No corrosion)
Protocol: as §1, §2

[6] = Gloss of the polyester powder coating films; details: polyester powder coating film containing the named curing agent (compositions of Table 1)
Protocol: as §1, §2

| Structure (SMILES) | Heat resistance, 220° C., 15 min [1] | MEK resistance tests, 24 h, gloss loss (%) [2] | QUV-A tests, 500 h, gloss retention (%) [3] | Flow and leveling (cm) [4] | Neutral salt-spray tests, 300 h [5] | Gloss of the films [6] |
| --- | --- | --- | --- | --- | --- | --- |
| O=C(CCCCC(=O)N(CCO)CCO)N(CCO)CCO [HAA, N,N,N′,N′-Tetrakis (2-hydroxyethyl)adipamide] | 1.15 | 8.16% | 72.7% | 3.1 cm | Slight | 84.5 |
| O=c1n(CC2CO2)c(=O)n(CC2CO2)c(=O)n1CC1CO1 (stereo not drawn) [TGIC, 1,3,5-Triglycidyl isocyanurate] | 0.59 | 10.25% | 75.8% | 3.8 cm | Slight | 87.6 |
